From ChEMBL document CHEMBL3785036 (J Pharm Sci, 1974) come the findings set out here.

A short description of this data set: Drug excretion in human subject rapid inactivator assessed as sum of isoniazid plus hydrazones, acetylisoniazid, isonicotinic acid and isonicotinuric acid level in urine at 670 mg, iv infused at constant rate 5.2min measured 158 mins after start of drug injection by colorimetry. It is filed as ADME, organism-based. The conditions noted are these: in vivo.

Consider `NNC(=O)c1ccncc1` [ISONIAZID], for which the Drug excretion is recorded as 49.9 mg.
